Source: patent US4472386A, “5-Fluoro-(β-uridine or 2'-deoxy-β-uridine) derivatives, a process for producing the same and a carcinostatic agent containing the same” (Toyama Chemical Co., Ltd., priority 1978, dated 1984)
Where two headings read alike, the source gives them in different places.

Tests used:
[1] = test system: Ehrlich ascites carcinoma; test: Inhibition of Ehrlich solid tumor in mice, intraperitoneal administration (Table 1); assay type: in vivo, ddY mice; set-up: response vs control in vivo: dose or concentration left out as unconfirmed; details: for response vs control in vivo: day 14
Experimental: (§1) 1. Experiment on the inhibition of Ehrlich solid tumor
Ehrlich ascites carcinoma was subcutaneously inoculated into the right inguinal region of ddY mice (5 weeks old, male, 8 mice per group) with 3×10^6 cells per mouse.
24 Hours after the inoculation, a test drug suspended or dissolved in 5% HCO 60 (a product manufactured by Nikkol) was administered intraperitoneally successively once daily for 7 days. To the control group, the same quantity as above of 5% HCO 60 was intraperitoneally administered in the same manner. Fourteen days after the inoculation, the tumor was excised and weighed, from which the average tumor weight ratio between the test group and the control group (T/C) was determined.

[2] = test system: Ehrlich ascites carcinoma; test: Inhibition of Ehrlich solid tumor in mice, oral administration starting six days after inoculation (Table 2); assay type: in vivo, ddY mice; details: for T/C (average tumor weight ratio between test group and control group): day 21
Experimental: as §1
Ehrlich ascites carcinoma was subcutaneously inoculated into the inguinal region of ddY mice (5 weeks old, male, 8 mice per group) with 3×10^6 cells per mouse. Six days after the inoculation, a test drug dissolved or suspended in 0.5% CMC solution was administered orally to the test group successively once daily for 10 days, while the same quantity as above of 0.5% CMC solution was orally administered to the control group. Twenty one days after the inoculation, the tumor was excised and weighed, from which the average tumor weight ratio between the test group and the control group (T/C) was determined.

[3] = test system: Sarcoma-180 ascites tumor; test: Inhibition of Sarcoma-180 ascites tumor in mice, intravenous administration (Table 3); assay type: in vivo, ddY mice; details: for T/C (average tumor weight ratio between test group and control group): Sarcoma-180, day 10
Experimental: 2. Experiment on the inhibition of Sarcoma-180 ascites tumor
Sarcoma-180 ascites tumor was subcutaneously inoculated into the right inguinal region of ddY mice (5 weeks old, male, 8 mice per group) with 3×10^6 cells per mouse. Twenty four hours after the inoculation,a test drug dissolved in 10% polyethylene glycol was administered intravenously to the test group successively once daily for 7 days, while the same quantity as above of 10% polyethylene glycol was intravenously administered to the control group. Ten days after the inoculation, the tumor was excised and weighed, from which the average tumor weight ratio between the test group and the control group (T/C) was determined.

[4] = Acute toxicity test (b), oral LD50 (Table 4); details: mouse, in vivo
Experimental: (b) The test compound was suspended in 0.25% CMC solution and administered orally to SLC-ddY mice (5 weeks old, male, 6 mice per group). The number of dead mice was counted over the subsequent 3 weeks. LD50 value was calculated according to the method of Van der Waerden.

[5] = test system: Ehrlich ascites carcinoma; test: Carcinostatic test, oral, ED values (Table 5); assay type: in vivo, ddY mice; details: Mus musculus, 336 h
Experimental: Ehrlich ascites carcinoma was subcutaneously inoculated into the right inguinal region of ddY mice (5 weeks old, male, 8 mice per group) with 8×10^6 cells per mouse. Twenty four hours after the inoculation,5, 10, 20 or 40 mg/kg of a test drug suspended or dissolved in polyethylene glycol was administered orally to the test group successively once daily for 10 days, while the same quantity as above of 10% polyethylene glycol was administered orally to the control group. Fourteen days after the inoculation, the tumor was excised and weighed, from which the average tumor weight ratio between the test group and the control group (T/C) was calculated. ED value was determined by the least square method.

SLC-ddY mice = details: mouse, in vivo
From the text: (a) The test compound was suspended in 0.25% CMC solution and administered intraperitoneally to SLC-ddY mice (5 weeks old, male, 6 mice per group). The number of dead mice was counted over the subsequent three weeks.

[6] = 5 mg/kg i.v. once daily for 7 days
[7] = oral, 3 weeks, Van der Waerden method
[8] = 40 mg/kg i.p. once daily for 7 days
[9] = Mus musculus, ip, 336 h, Ehrlich, read-out: T/C (average tumor weight ratio between test group and control group)
[10] = 60 mg/kg orally once daily for 10 days
[11] = 60 mg/kg orally once daily for 10 days from day 6, Ehrlich
[12] = 10 mg/kg i.v. once daily for 7 days
[13] = oral once daily for 10 days, least square method, read-out: ED30
[14] = oral once daily for 10 days, least square method, read-out: ED40

Compound	Body weight change [1, 8]	response vs control in vivo [1, 9]	other results
O=c1[nH]cc(F)c(=O)[nH]1 [5-Fu, 5-fluorouracil, reference compound]			Body weight change ([1]; 20 mg/kg i.p. once daily for 7 days): +4.1 g; response vs control in vivo at 20 mg/kg ([1]; Mus musculus, Ehrlich, ip, 336 h, read-out: T/C (average tumor weight ratio between test group and control group)): 49.9%; Body weight change ([2]; 30 mg/kg orally once daily for 10 days): -3.8 g; T/C (average tumor weight ratio between test group and control group) ([2]; 30 mg/kg orally once daily for 10 days from day 6, Ehrlich): 39.7%; Body weight change [3, 6]: +4.0 g; No. of surviving mice/No. of total mice used [3, 6]: 8/8; T/C (average tumor weight ratio between test group and control group) [3, 6]: 59.7%; LD50 at 504 h [4, 7]: 259 mg/kg; ED30 ([5]; po): 15 mg/kg; ED40 ([5]; po): 25 mg/kg
O=C(c1ccc(F)cc1)n1c(=O)c(F)cn([C@H]2C[C@H](O)[C@@H](CO)O2)c1=O [compound 2]	+6.8 g	23.2%	Body weight change [2, 10]: -0.4 g; T/C (average tumor weight ratio between test group and control group) [2, 11]: 36.8%; Body weight change [3, 12]: +4.1 g; No. of surviving mice/No. of total mice used [3, 12]: 8/8; T/C (average tumor weight ratio between test group and control group) [3, 12]: 46.2%; Number of dead mice (SLC-ddY mice): no dead mice; LD50 at 504 h ([4]; po): 2070 mg/kg; ED30 [5, 13]: 11 mg/kg; ED40 [5, 14]: 20 mg/kg
O=C(CCl)Nc1cccc(C(=O)n2c(=O)c(F)cn([C@H]3C[C@H](O)[C@@H](CO)O3)c2=O)c1 [compound 4]	+4.4 g	25.2%	
O=C(CCl)Nc1ccc(C(=O)n2c(=O)c(F)cn([C@H]3C[C@H](O)[C@@H](CO)O3)c2=O)cc1 [compound 5]	+4.8 g	27.5%	Body weight change [2, 10]: -4.1 g; T/C (average tumor weight ratio between test group and control group) [2, 11]: 34.0%
Cc1ccccc1C(=O)n1c(=O)c(F)cn([C@H]2C[C@H](O)[C@@H](CO)O2)c1=O [compound 6]	+7.3 g	32.3%	
O=C(c1ccccc1Cl)n1c(=O)c(F)cn([C@H]2C[C@H](O)[C@@H](CO)O2)c1=O [compound 7]	+6.0 g	33.1%	
O=C(c1ccccc1I)n1c(=O)c(F)cn([C@H]2C[C@H](O)[C@@H](CO)O2)c1=O [compound 8]	+7.6 g	33.5%	
O=C(c1cccc2ccccc12)n1c(=O)c(F)cn([C@H]2C[C@H](O)[C@@H](CO)O2)c1=O [compound 9]	+6.7 g	33.5%	
COc1cc(N)c(Cl)cc1C(=O)n1c(=O)c(F)cn([C@H]2C[C@H](O)[C@@H](CO)O2)c1=O [compound 10]	+7.3 g	34.2%	
O=C(c1cccc(Cl)c1)n1c(=O)c(F)cn([C@H]2C[C@H](O)[C@@H](CO)O2)c1=O [compound 11]	+7.6 g	34.3%	Number of dead mice (SLC-ddY mice): no dead mice
COC(=O)c1ccc(C(=O)n2c(=O)c(F)cn([C@H]3C[C@H](O)[C@@H](CO)O3)c2=O)cc1 [compound 12]	+6.2 g	36.9%	
N#Cc1ccc(C(=O)n2c(=O)c(F)cn([C@H]3C[C@H](O)[C@@H](CO)O3)c2=O)cc1 [compound 13]	+7.2 g	36.9%	Number of dead mice (SLC-ddY mice): no dead mice
O=Cc1ccc(C(=O)n2c(=O)c(F)cn([C@H]3C[C@H](O)[C@@H](CO)O3)c2=O)cc1 [compound 14]	+7.1 g	38.1%	
O=C(c1ccco1)n1c(=O)c(F)cn([C@H]2C[C@H](O)[C@@H](CO)O2)c1=O [compound 15]	+7.9 g	39.1%	
Cc1ccsc1C(=O)n1c(=O)c(F)cn([C@H]2C[C@H](O)[C@@H](CO)O2)c1=O [compound 16]	+6.4 g	40.7%	
O=C(c1cc(O)cc(O)c1)n1c(=O)c(F)cn([C@H]2C[C@H](O)[C@@H](CO)O2)c1=O [compound 17]	+7.9 g	41%	
COc1cccc(OC)c1C(=O)n1c(=O)c(F)cn([C@H]2C[C@H](O)[C@@H](CO)O2)c1=O [compound 18]	+7.8 g	41.5%	Number of dead mice (SLC-ddY mice): no dead mice
O=C(c1ccc([N+](=O)[O-])cc1)n1c(=O)c(F)cn([C@H]2C[C@H](O)[C@@H](CO)O2)c1=O [compound 19]	+5.9 g	41.5%	
O=C(c1ccccc1F)n1c(=O)c(F)cn([C@H]2C[C@H](O)[C@@H](CO)O2)c1=O [compound 20]	+7.4 g	42.8%	
CN(C)c1ccc(C(=O)n2c(=O)c(F)cn([C@H]3C[C@H](O)[C@@H](CO)O3)c2=O)cc1 [compound 21]	+4.7 g	32.4%	LD50 at 504 h [4, 7]: ≥ 2540 mg/kg
O=C(Nc1ccc(C(=O)n2c(=O)c(F)cn([C@H]3C[C@H](O)[C@@H](CO)O3)c2=O)cc1)C(Cl)Cl [compound 22]	+6.5 g	41.6%	
O=C(c1cc(Br)cs1)n1c(=O)c(F)cn([C@H]2C[C@H](O)[C@@H](CO)O2)c1=O [compound 23]	+5.3 g	38.8%	
O=C(c1ccc(Br)o1)n1c(=O)c(F)cn([C@H]2C[C@H](O)[C@@H](CO)O2)c1=O [compound 24]	+4.7 g	42.5%	
O=C(c1cccc(C(F)(F)F)c1)n1c(=O)c(F)cn([C@H]2C[C@H](O)[C@@H](CO)O2)c1=O [compound 25]	+5.3 g	43%	
O=C(CBr)Nc1ccc(C(=O)n2c(=O)c(F)cn([C@H]3C[C@H](O)[C@@H](CO)O3)c2=O)cc1 [compound 26]	+2.3 g	35.3%	
O=C(c1ccc2c(c1)OCO2)n1c(=O)c(F)cn([C@H]2C[C@H](O)[C@@H](CO)O2)c1=O [compound 27]	+6.4 g	27.1%	Body weight change [2, 10]: -0.5 g; T/C (average tumor weight ratio between test group and control group) [2, 11]: 30%; Body weight change [3, 12]: +4.0 g; No. of surviving mice/No. of total mice used [3, 12]: 8/8; T/C (average tumor weight ratio between test group and control group) [3, 12]: 45.3%; Number of dead mice (SLC-ddY mice): no dead mice; LD50 at 504 h ([4]; po): ≥ 2290 mg/kg; ED30 [5, 13]: 6.4 mg/kg; ED40 [5, 14]: 12 mg/kg
O=C(c1ccc(F)cc1F)n1c(=O)c(F)cn([C@H]2C[C@H](O)[C@@H](CO)O2)c1=O [compound 28]	+5.9 g	21.7%	
O=C(c1c(F)cccc1F)n1c(=O)c(F)cn([C@H]2C[C@H](O)[C@@H](CO)O2)c1=O [compound 29]	+7.9 g	41.3%	
CC(=O)OC[C@H]1O[C@@H](n2cc(F)c(=O)n(C(=O)c3ccc4c(c3)OCO4)c2=O)C[C@@H]1OC(C)=O [compound 30]	+6.1 g	30.1%	
